In US9006252B2, “Fused multicyclic compounds as protein kinase inhibitors” (National Health Research Institutes, priority 2008, dated 2015):
“And” between values parts separate entries of the source, which are not always exact repeats. Identical values can stand only once. Like-named read-outs stand apart in the source and are kept apart here.

Key:
Aurora A = target: T1, Aurora A (Homo sapiens, UniProt O14965); assay: Aurora Kinase A luminescent kinase assay (Kinase-Glo); assay type: biochemical; details: IC50 values (concentration of a test compound at which activity of 50% of Aurora A is inhibited), GST-tAurora A (123-401aa) fusion protein
T1 construct: GST-tAurora A (123-401aa) fusion protein obtained above; made in house; host or cells: Sf9 insect cells (baculovirus, pBacPAK8)
T1 sequence (O14965 123-401): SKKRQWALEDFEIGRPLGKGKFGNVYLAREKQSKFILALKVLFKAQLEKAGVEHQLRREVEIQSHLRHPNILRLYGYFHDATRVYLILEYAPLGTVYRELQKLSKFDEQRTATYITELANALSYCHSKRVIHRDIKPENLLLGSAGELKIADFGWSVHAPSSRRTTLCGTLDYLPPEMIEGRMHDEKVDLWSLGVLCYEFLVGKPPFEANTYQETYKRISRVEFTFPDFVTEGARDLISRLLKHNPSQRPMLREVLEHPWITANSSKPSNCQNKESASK
Experimental: The Aurora A catalytic domain with an N-terminal GST tag was constructed in pBacPAK8 plasmid and expressed in sf9 cells. […] To concentrate GST-tAurora A, buffer was replaced with Tris buffer (100 mM Tris (pH 7.5), 300 mM NaCl, 1 mM EDTA, 4 mM DTT) using Amicon ultra-15 (MWCO:30K, Millipore) to 2.4 mg/ml. After the addition of equal volume of glycerol and 0.04% Triton X-100, the proteins were stored aliquoted at −80° C.
Briefly, a test compound, enzyme, substrate-tetra(LRRWSLG), DTT and ATP were dissolved in Aur buffer (50 mM Tris-HCl pH 7.4, 10 mM NaCl, 10 mM MgCl2, and 100 μg/ml BSA) individually before the assay. […] 5 μM ATP (5 μl), 1 mM DTT (5 μl) and 0.1 mM tetra(LRRWSLG) peptide substrate (5 μl) were added into the reactions of test compounds and GST-tAurora A. The reactions were incubated at 37° C. for 90 min. 50 μl of Kinase-Glo Plus Reagent (V3771, Promega) was added into the reactions, followed by the incubation at 25° C. for 20 min.

HCT-116 cells = assay: HCT-116 cell viability, MTS assay; assay type: cell-based; details: Homo sapiens, HCT-116, 96 h, read-out: IC50 values, HCT-116 cell viability
Experimental: HCT-116 cell viability was examined by the MTS assay (Promega, Madison, Wis., USA). 2000 HCT-116 cells in 100 μL McCoy's 5a medium were seeded in each well of a 96-well plate. After 96-h incubation with a test compound, the cells were incubated with 20 μL of a MTS/PMS mixture (MTS/PMS ratio: 20:1) for 2 h at 37° C. in a humidified incubator with 5% CO2 to allow viable cells to convert the tetrazolium salt (MTS) into formazan. The amount/concentration of formazan, which indicates the number of live cells, was determined by measuring the absorbance at 490 nm using a PerkinElmer Victor2 plate reader (PerkinElmer, Shelton, Conn., USA).

| Compound | IC50 (Aurora A) | IC50 (HCT-116 cells) [nM] | IC50 (HCT-116 cells; 96-h incubation, MTS) [nM] |
| --- | --- | --- | --- |
| COc1cc2ncnc(NCCc3ccc(NC(=O)Nc4ccccc4)cc3)c2cc1OC [Compound 1, 1-(4-(2-(6,7-dimethoxyquinazolin-4-ylamino)ethyl)phenyl)-3-phenylurea] | 1 to 50 nM and < 1000 nM | < 100 | – |
| O=C(Nc1ccccc1)Nc1ccc(CCNc2ncnc3oc(-c4ccccc4)nc23)cc1 [Compound 7, 1-Phenyl-3-{4-[2-(2-phenyl-oxazolo[5,4-d]pyrimidin-7-ylamino)-ethyl]-phenyl}-urea] | < 1000 nM and 51 to 450 nM | – | 101 to 850 |
| CCN(CCO)CCCOc1ccc2c(NCCc3ccc(NC(=O)Nc4ccccc4)cc3)ncnc2c1 [Compound 20] | < 1000 nM and 1 to 50 nM | – | < 100 |
| COc1cc2ncnc(NCCc3ncc(NC(=O)Nc4ccccc4)s3)c2cc1OC [Compound 47] | < 1000 nM and 1 to 50 nM | – | 101 to 850 |
| CN(C)Cc1ccccc1NC(=O)Nc1ccc(CCNc2ncnc3oc(-c4ccccc4)nc23)cc1 [Compound 72] | < 1000 nM and 51 to 450 nM | – | – |
| COc1cc2ncnc(NCCc3ccc(NC(=O)Nc4ccccc4)cc3)c2cc1OC [Compound 201] | 1 to 50 nM and < 1000 nM | – | – |
| CN(C)CCCOc1ccc2c(NCCc3ccc(NC(=O)Nc4ccccc4)cc3)ncnc2c1 [Compound 202] | 51 to 450 nM and < 1000 nM | – | – |
| CCN(CCO)CCCOc1ccc2c(NCCc3ccc(NC(=O)Nc4ccccc4)cc3)ncnc2c1 [Compound 203] | 51 to 450 nM and < 1000 nM | – | – |
| COc1cc2ncnc(NCCc3ccc(NC(=O)Nc4cccc(C(F)(F)F)c4)cc3)c2cc1OC [Compound 204] | 1 to 50 nM and < 1000 nM | – | 101 to 850 |
| CN(C)CCCOc1ccc2c(NCCc3ccc(NC(=O)Nc4cccc(F)c4)cc3)ncnc2c1 [Compound 208] | < 1000 nM and 51 to 450 nM | – | – |
| COc1cc2ncnc(NCCc3ccc(NC(=O)Nc4ccc(F)cc4)cc3)c2cc1OC [Compound 211] | 1 to 50 nM and < 1000 nM | – | – |
| COc1ccc2c(NCCc3ccc(NC(=O)Nc4ccccc4)cc3)c(C#N)cnc2c1 [Compound 212] | 51 to 450 nM and < 1000 nM | – | 101 to 850 |
| O=C(Nc1ccccc1)Nc1ccc(CCNc2ncnc3oc(-c4ccc(O)cc4)nc23)cc1 [Compound 220] | 1 to 50 nM and < 1000 nM | – | 101 to 850 |
| COc1cc2ncnc(NCCc3ccc(Nc4nc5ccccc5[nH]4)cc3)c2cc1OC [Compound 224] | 1 to 50 nM and < 1000 nM | – | 101 to 850 |
| COc1cc2ncc(C#N)c(NCCc3ccc(NC(=O)Nc4cccc(F)c4)cc3)c2cc1OC [Compound 225] | 51 to 450 nM and < 1000 nM | – | 101 to 850 |
| N#Cc1cnc2cc(O)ccc2c1NCCc1ccc(NC(=O)Nc2ccccc2)cc1 [Compound 229] | – | – | 101 to 850 |
| COc1cc2ncnc(OCCc3ccc(NC(=O)Nc4ccccc4)cc3)c2cc1OC [Compound 232] | 1 to 50 nM and < 1000 nM | – | 101 to 850 |
| CN(C)c1ccc2c(NCCc3ccc(NC(=O)Nc4ccccc4)cc3)ncnc2c1 [Compound 233] | 51 to 450 nM and < 1000 nM | – | < 100 |
| COc1cc2ncnc(N(C)CCc3ccc(NC(=O)Nc4ccccc4)cc3)c2cc1OC [Compound 240] | 51 to 450 nM and < 1000 nM | – | < 100 |
| O=C(Nc1ccccc1)Nc1ccc(CCNc2ncnc3ccccc23)cc1 [Compound 249] | 1 to 50 nM and < 1000 nM | – | – |

The remaining lines, values ahead:

| IC50 (Aurora A) | IC50 (HCT-116 cells) [nM] | IC50 (HCT-116 cells; 96-h incubation, MTS) [nM] | Compound |
| --- | --- | --- | --- |
| < 1000 nM and 51 to 450 nM | – | 101 to 850 | COc1cc2ncnc(NCCc3ccc(NC(=O)Nc4cccnc4)cc3)c2cc1OC [Compound 2, 1-{4-[2-(6,7-Dimethoxy-quinazolin-4-ylamino)-ethyl]-phenyl}-3-pyridin-3-yl-urea] |
| < 1000 nM and 51 to 450 nM | – | < 100 | COc1cc2ncnc(NCCc3ccc(NC(=O)Nc4cccc(F)c4)cc3)c2cc1OC [Compound 5, 1-{4-[2-(6,7-Dimethoxy-quinazolin-4-ylamino)-ethyl]-phenyl}-3-(3-fluoro-phenyl)-urea] |
| < 1000 nM and 51 to 450 nM | – | – | O=C(Nc1ccccc1)Nc1ccc(CCNc2ncnc3cc(OCCCCl)ccc23)cc1 [Compound 6, 1-(4-{2-[7-(3-Chloro-propoxy)-quinazolin-4-ylamino]-ethyl}-phenyl)-3-phenyl-urea] |
| < 1000 nM and 1 to 50 nM | – | 101 to 850 | CCN(CCO)CCCOc1ccc2c(NCCc3ccc(NC(=O)Nc4cccc(F)c4)cc3)ncnc2c1 [Compound 22] |
| < 1000 nM and 51 to 450 nM | – | 101 to 850 | COc1cc2ncnc(NCCc3cnc(NC(=O)Nc4cccc(F)c4)s3)c2cc1OC [Compound 56] |
| < 1000 nM and 51 to 450 nM | – | – | O=C(Nc1ccccc1)Nc1ncc(CCNc2ncnc3oc(-c4ccccc4)nc23)s1 [Compound 81] |
| < 1000 nM and 51 to 450 nM | – | – | COc1cc2ncc(C#N)c(NCCc3ccc(NC(=O)Nc4ccccc4)cc3)c2cc1OC [Compound 140] |
| < 1000 nM and 51 to 450 nM | – | – | N#Cc1cnc2ccsc2c1NCCc1cnc(NC(=O)Nc2cccc(Cl)c2)s1 [Compound 190, 1-(3-chlorophenyl)-3-(5-(2-(6-cyanothieno[3,2-b]pyridin-7-ylamino)ethyl)thiazol-2-yl)urea] |
| < 1000 nM and 51 to 450 nM | – | 101 to 850 | COc1cccc(NC(=O)Nc2ccc(CCNc3ncnc4cc(OC)c(OC)cc34)cc2)c1 [Compound 205] |
| < 1000 nM and 51 to 450 nM | – | 101 to 850 | COc1ccc(-c2nc3c(NCCc4ccc(NC(=O)Nc5ccccc5)cc4)ncnc3o2)cc1 [Compound 206] |
| < 1000 nM and 51 to 450 nM | – | 101 to 850 | CN(C)CCCOc1ccc2c(NCCc3ccc(NC(=O)Nc4cccc(F)c4)cc3)ncnc2c1 [Compound 207] |
| 1 to 50 nM and < 1000 nM | – | – | CCN(CCO)CCCOc1ccc2c(NCCc3ccc(NC(=O)Nc4cccc(F)c4)cc3)ncnc2c1 [Compound 209] |
| 1 to 50 nM and < 1000 nM | – | < 100 | COc1cc2ncnc(NCCc3ccc(NC(=O)Nc4ccc(F)cc4)cc3)c2cc1OC [Compound 210] |
| – | – | 101 to 850 | COc1ccc2c(NCCc3ccc(NC(=O)Nc4cccc(Cl)c4)cc3)c(C#N)cnc2c1 [Compound 213] |
| 51 to 450 nM and < 1000 nM | – | 101 to 850 | O=C(Nc1ccccc1)Nc1ccc(CCNc2ncnc3oc(-c4cccnc4)nc23)cc1 [Compound 222] |
| 51 to 450 nM and < 1000 nM | – | – | COc1cc2ncc(C#N)c(NCCc3ccc(NC(=O)NC4CC4)cc3)c2cc1OC [Compound 226] |
| 51 to 450 nM and < 1000 nM | – | – | COc1cc2ncc(C#N)c(NCCc3cnc(NC(=O)Nc4ccccc4)s3)c2cc1OC [Compound 227] |
| 1 to 50 nM and < 1000 nM | – | < 100 | COc1cc2ncnc(NCCc3cnc(NC(=O)Nc4cccc(Cl)c4)s3)c2cc1OC [Compound 228] |
| < 1000 nM | – | – | COc1cc2ncnc(NCCc3ccc(NC(=O)NC4CC4)cc3)c2cc1OC [Compound 230] |
| 51 to 450 nM and < 1000 nM | – | 101 to 850 | COc1ccc2ncc(C#N)c(NCCc3ccc(NC(=O)Nc4ccccc4)cc3)c2c1 [Compound 231] |
| 1 to 50 nM and < 1000 nM | – | – | O=C(Nc1ccccc1)Nc1ccc(CCNc2ncnc3oc(-c4ccncc4)nc23)cc1 [Compound 235] |
| 51 to 450 nM and < 1000 nM | – | 101 to 850 | O=C(Nc1ccccc1)Nc1ccc(CCNc2ncnc3oc(-c4ccncc4)nc23)cc1 [Compound 236] |
| 1 to 50 nM and < 1000 nM | – | 101 to 850 | O=C(Nc1ccccc1)Nc1ccc(CCNc2ncnc3oc(-c4ccccn4)nc23)cc1 [Compound 237] |
| 51 to 450 nM and < 1000 nM | – | – | O=C(Nc1cccc(F)c1)Nc1ncc(CCNc2ncnc3oc(-c4ccccc4)nc23)s1 [Compound 241] |
| 51 to 450 nM and < 1000 nM | – | – | O=C(Nc1cccc(Cl)c1)Nc1ncc(CCNc2ncnc3oc(-c4ccccc4)nc23)s1 [Compound 242] |
| 1 to 50 nM and < 1000 nM | – | – | COc1cc2ncnc(NCCc3ccc(NC(=O)Nc4cc(F)cc(F)c4)cc3)c2cc1OC [Compound 245] |
